Data: US7119077B1, “Multimeric forms of members of the steroid/thyroid superfamily of receptors with the ultraspiracle receptor” (The Salk Institute for Biological Studies, priority 1990, dated 2006)

Tests used:
GEcR/usp [1] = biological target: T1, GEcR/usp (UniProt P04150+P34021, C431Y/E427R/G434N/G439E/K419E/P331L/P416R/S425G/S440G/V435A/V443G); assay: Cotransfection CAT reporter assay with GEcR (GR N-terminal domain fused to EcR) and usp in CV1 cells; format: cell-based, Drosophila; conditions: CV1 cells transfected with GEcR alone
T1 construct: expressed in transfected cells; host or cells: CV1 monkey kidney cells
T1 sequence (P04150+P34021 with tags, fused parts or gaps P04150:P416R/P04150:K419E/P04150:S425G/P04150:E427R/P04150:C431Y/P04150:G434N/P04150:V435A/P04150:G439E/P04150:S440G/P04150:V443G/P34021:P331L): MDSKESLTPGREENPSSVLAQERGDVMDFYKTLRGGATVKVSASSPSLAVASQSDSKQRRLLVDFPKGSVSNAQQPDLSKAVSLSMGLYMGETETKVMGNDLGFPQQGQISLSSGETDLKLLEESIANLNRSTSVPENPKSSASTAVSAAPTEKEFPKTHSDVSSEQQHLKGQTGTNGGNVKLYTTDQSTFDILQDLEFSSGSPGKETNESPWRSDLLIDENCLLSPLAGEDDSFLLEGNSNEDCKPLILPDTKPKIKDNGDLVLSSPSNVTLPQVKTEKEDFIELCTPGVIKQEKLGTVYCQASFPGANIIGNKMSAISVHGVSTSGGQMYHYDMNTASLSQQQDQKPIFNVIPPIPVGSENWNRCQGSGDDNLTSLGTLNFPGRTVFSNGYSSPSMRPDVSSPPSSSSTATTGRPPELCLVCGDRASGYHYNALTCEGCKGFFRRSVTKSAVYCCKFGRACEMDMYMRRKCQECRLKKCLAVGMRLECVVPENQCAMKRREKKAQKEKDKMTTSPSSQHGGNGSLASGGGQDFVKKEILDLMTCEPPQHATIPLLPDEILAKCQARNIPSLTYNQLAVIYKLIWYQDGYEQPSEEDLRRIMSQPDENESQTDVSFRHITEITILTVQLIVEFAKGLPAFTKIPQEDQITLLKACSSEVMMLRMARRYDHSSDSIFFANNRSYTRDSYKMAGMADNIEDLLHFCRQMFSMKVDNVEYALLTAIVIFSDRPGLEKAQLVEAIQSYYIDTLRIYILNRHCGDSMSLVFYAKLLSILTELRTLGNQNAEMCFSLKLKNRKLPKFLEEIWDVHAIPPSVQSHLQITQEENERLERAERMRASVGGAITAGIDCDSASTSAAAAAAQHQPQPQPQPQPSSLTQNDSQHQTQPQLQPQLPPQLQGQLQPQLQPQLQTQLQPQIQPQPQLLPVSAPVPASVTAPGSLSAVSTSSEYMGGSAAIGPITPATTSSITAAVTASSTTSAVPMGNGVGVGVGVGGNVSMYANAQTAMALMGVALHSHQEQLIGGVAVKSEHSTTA
Text: (§1) GEcR was constructed by ligation of a NotI/BamHI fragment containing the DNA and hormone binding domains of a modified EcR cDNA, EcRnx, in place of the DNA and hormone binding domains of the similarly modified glucocorticoid receptor expression construct pRShGRnx [Giguére et al., Nature Vol. 330:624–629 (1987)]. The modified receptor cDNA was constructed using the site-directed mutagenesis procedure of Kunkel, T. A., Proc. Natl. Acad. Sci. USA Vol. 82:[…] (1985) to insert NotI (employing SEQ ID NO:23 as the oligonucleotide template) and XhoI (employing SEQ ID NO:24 as the oligonucleotide template) sites immediately flanking the DNA binding domain. SEQ ID NO:23 is:
(§2) Transfection was performed with calcium-phosphate precipitation method as described previously [Umesono et al., Nature 336:262–264 (1989)]. […] Beta-galactosidase (βGal) activity was measured and a normalized amount of extract was used for CAT assay (Umesono et al. (1989) supra]. The following amount of plasmid DNA was included in the 10 cm plate transfection: 250 ng each of CMX-EcR and RSV-GEcR; 500 ng of CMX-usp; 5 μg ΔMTV-EcRE5-CTA; 5 μg of βGal internal control plasmid CH111 (a derivative of CH110, Promega). The amount of CMX plasmid was kept constant in each transfection by adding CMX-luciferase. PGEM4 was added to bring the total amount of plasmid DNA to 15 μg per plate. […]

GEcR/usp [2] = biological target: T2, GEcR/usp (UniProt P04150+P34021, C431Y/E427R/G434N/G439E/K419E/P331L/P416R/S425G/S440G/V435A/V443G); assay: as above; format: cell-based, Drosophila; conditions: CV1 cells cotransfected with GEcR and usp expression plasmid, EcRE reporter
T2 construct: expressed in transfected cells; host or cells: CV1 monkey kidney cells
T2 sequence (P04150+P34021 with tags, fused parts or gaps P04150:P416R/P04150:K419E/P04150:S425G/P04150:E427R/P04150:C431Y/P04150:G434N/P04150:V435A/P04150:G439E/P04150:S440G/P04150:V443G/P34021:P331L): T1 sequence (P04150+P34021 with tags, fused parts or gaps P04150:P416R/P04150:K419E/P04150:S425G/P04150:E427R/P04150:C431Y/P04150:G434N/P04150:V435A/P04150:G439E/P04150:S440G/P04150:V443G/P34021:P331L)
T2 sequence (P20153 1-508 partner): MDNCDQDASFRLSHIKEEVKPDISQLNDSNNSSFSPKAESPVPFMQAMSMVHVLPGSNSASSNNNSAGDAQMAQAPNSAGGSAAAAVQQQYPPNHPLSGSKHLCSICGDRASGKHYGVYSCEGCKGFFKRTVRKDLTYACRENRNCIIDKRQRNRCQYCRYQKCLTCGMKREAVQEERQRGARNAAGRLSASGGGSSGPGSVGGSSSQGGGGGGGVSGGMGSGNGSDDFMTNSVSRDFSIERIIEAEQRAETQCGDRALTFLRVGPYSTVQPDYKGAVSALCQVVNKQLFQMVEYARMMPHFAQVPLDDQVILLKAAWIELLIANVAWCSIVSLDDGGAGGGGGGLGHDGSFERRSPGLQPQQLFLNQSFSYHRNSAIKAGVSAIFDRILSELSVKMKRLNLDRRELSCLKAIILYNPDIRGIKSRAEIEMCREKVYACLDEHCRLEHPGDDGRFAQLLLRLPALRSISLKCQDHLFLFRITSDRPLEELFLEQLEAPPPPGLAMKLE
Text: as §1, §2

20-Hydroxyecdysone [20-OH-ecdysone] was tested. Which “ecdysone response (CAT activity)” value (GEcR/usp [1]) did it give?
The value was “failed to confer ecdysone response”.

What about the “induction of CAT activity” value (GEcR/usp [2]) of the same substance?
The value was 8–10 fold.
